According to ChEMBL document CHEMBL1128690, “Design of potent non-thiourea H3-receptor histamine antagonists” (J Med Chem, 1995):

Legend:
Histamine H3 receptor [1] = target: T1, Histamine H3 receptor (Rattus norvegicus, UniProt Q9QYN8); assay: In vitro antagonism of the histamine H3-receptor in the rat cerebral cortex.; format: functional, tissue-based
Histamine H3 receptor [2] = target: T1, Histamine H3 receptor; assay: The compound was tested in vitro for antagonistic activity against H3-receptor in the rat cerebral cortex; Not active (tested up to 1000 nM); format: functional, tissue-based

T1 sequence (Q9QYN8 whole entry): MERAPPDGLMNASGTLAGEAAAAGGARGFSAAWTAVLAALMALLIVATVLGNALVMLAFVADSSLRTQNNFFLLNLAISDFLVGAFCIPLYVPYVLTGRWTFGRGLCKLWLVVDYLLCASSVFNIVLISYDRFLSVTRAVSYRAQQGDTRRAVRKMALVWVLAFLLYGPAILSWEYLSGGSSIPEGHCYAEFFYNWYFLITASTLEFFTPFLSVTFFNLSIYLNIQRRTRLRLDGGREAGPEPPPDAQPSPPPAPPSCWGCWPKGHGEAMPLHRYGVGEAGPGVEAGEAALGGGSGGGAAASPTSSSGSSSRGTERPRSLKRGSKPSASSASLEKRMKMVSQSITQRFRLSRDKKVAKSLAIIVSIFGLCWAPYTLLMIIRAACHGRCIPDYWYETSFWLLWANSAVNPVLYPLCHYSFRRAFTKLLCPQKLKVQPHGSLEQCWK

| Compound | Ki (Histamine H3 receptor [1]) [nM] | Ki (Histamine H3 receptor [2]) |
| --- | --- | --- |
| COC(=O)c1ccc(NCCc2cnc[nH]2)nc1 | 42 | – |
| O=[N+]([O-])c1ccc(NCCc2ccccn2)nc1 | ~1000 | – |
| O=[N+]([O-])c1ccc(NCCCc2c[nH]cn2)nc1 | 170 | – |
| O=[N+]([O-])c1ccc(SCc2c[nH]cn2)nc1 | ~600 | – |
| FC(F)(F)c1ccc(NCCc2cnc[nH]2)nc1 | 17 | – |
| c1ccc(CCNc2ncccn2)nc1 | > 10000 | – |
| c1cnc(NCCc2c[nH]cn2)cn1 | 200 | – |
| O=[N+]([O-])c1cc[n+]([O-])c(NCCc2c[nH]cn2)c1 | 53 | – |
| O=[N+]([O-])c1cccnc1NCCc1c[nH]cn1 | 240 | – |
| S=C(NCCCc1cnc[nH]1)NC1CCCCC1 | 13 | – |
| S=C(NC1CCCCC1)N1CCC(c2cnc[nH]2)CC1 [THIOPERAMIDE] | 4.3 | – |

Second part, the molecule after the results:

| Ki (Histamine H3 receptor [1]) [nM] | Ki (Histamine H3 receptor [2]) | Compound |
| --- | --- | --- |
| 160 | – | Clc1cc(NCCc2cnc[nH]2)ccn1 |
| 92 | – | c1ccc(SCCc2cnc[nH]2)nc1 |
| – | Not Active | S=C(NCCCn1ccnc1)NC1CCCCC1 |
| ~500 | – | S=C(NCCSCc1c[nH]cn1)NC1CCCCC1 |
| 42 | – | FC(F)(F)c1ccc(N2CCC(c3cnc[nH]3)CC2)nc1 |
| 200 | – | c1ccc(NCCc2c[nH]cn2)nc1 |
| 400 | – | c1c[nH]c(SCCc2cnc[nH]2)n1 |
| 340 | – | c1csc(NCCc2cnc[nH]2)n1 |
| 29 | – | O=[N+]([O-])c1ccc(NCCc2c[nH]cn2)nc1 |
| ~200 | – | S=C(NCCc1c[nH]cn1)NC1CCCCC1 |
| 70 | – | CNC(=S)NCCCCc1cnc[nH]1 [BURIMAMIDE] |
